Read-outs that look alike come from different tables or passages of the source.
Tests used:
Assay in all cases: Test E pre-/postemergence plant response
Type in all cases: in vivo
[1] = tested on: windgrass (Apera spica-venti); conditions: scale 0 to 100, read-out: Plant response rating, Windgrass; for pest or weed control at 16 g/ha: 16 g ai/ha; for pest or weed control at 62 g/ha: 62 g ai/ha; for pest or weed control at 125 g/ha: 125 g ai/ha
From the text: (§1) Seeds of plant species selected from bluegrass (annual bluegrass, Poa annua), blackgrass (Alopecurus myosuroides), canarygrass (Phalaris minor), chickweed (common chickweed, Stellaria media), galium (catchweed bedstraw, Galium aparine), downy bromegrass (Bromus tectorum), field poppy (Papaver rhoeas), field violet (Viola arvensis), green foxtail (Setaria viridis), deadnettle (henbit deadnettle, Lamium amplexicaule), Italian ryegrass (Lolium multiflorum), kochia (Kochia scoparia), lambsquarters (Chenopodium album), oilseed rape (Brassica napus), pigweed (Amaranthus retroflexus), Russian thistle (Salsola iberica), chamomile (scentless chamomile, Matricaria inodora), speedwell (bird's-eye speedwell, Veronica persica), spring barley (Hordeum vulgare), spring wheat (Triticum aestivum), wild buckwheat (Polygonum convolvulus), wild mustard (Sinapis arvensis), wild oat (Avena fatua), wild radish (Raphanus raphanistrum), windgrass (Apera spica-venti), winter barley (Hordeum vulgare), and winter wheat (Triticum aestivum) were planted into a silt loam soil and treated preemergence with test chemicals formulated in a non-phytotoxic solvent mixture which included a surfactant. At the same time, these species were planted in pots containing Redi-Earth® planting medium (Scotts Company, 14111 Scottslawn Road, Marysville, Ohio 43041) comprising spaghnum peat moss, vermiculite, wetting agent and starter nutrients and treated with postemergence applications of the test chemicals formulated in the same manner. Plants ranged in height from 2 to 18 cm (1- to 4-leaf stage).
(§2) Treated plants and controls were maintained in a controlled growth environment for 7 to 21 days after which time all species were compared to controls and visually evaluated. Plant response ratings, summarized in Table E, are based on a scale of 0 to 100 where 0 is no effect and 100 is complete control. A dash (-) response means no test result.

[2] = tested on: bluegrass (annual bluegrass, Poa annua); conditions: scale 0 to 100, read-out: Plant response rating, Bluegrass; for pest or weed control at 16 g/ha: 16 g ai/ha; for pest or weed control at 31 g/ha: 31 g ai/ha; for pest or weed control at 62 g/ha: 62 g ai/ha; for pest or weed control at 125 g/ha: 125 g ai/ha
From the text: as §1, §2

[3] = tested on: downy bromegrass (Bromus tectorum); conditions: scale 0 to 100, read-out: Plant response rating, Bromegrass, Downy; for pest or weed control at 16 g/ha: 16 g ai/ha; for pest or weed control at 31 g/ha: 31 g ai/ha; for pest or weed control at 62 g/ha: 62 g ai/ha; for pest or weed control at 125 g/ha: 125 g ai/ha
From the text: as §1, §2

[4] = tested on: galium (catchweed bedstraw, Galium aparine); conditions: scale 0 to 100, read-out: Plant response rating, Galium; for pest or weed control at 16 g/ha: 16 g ai/ha; for pest or weed control at 31 g/ha: 31 g ai/ha; for pest or weed control at 62 g/ha: 62 g ai/ha; for pest or weed control at 125 g/ha: 125 g ai/ha
From the text: as §1, §2

[5] = tested on: chickweed (common chickweed, Stellaria media); conditions: scale 0 to 100, read-out: Plant response rating, Chickweed; for pest or weed control at 16 g/ha: 16 g ai/ha; for pest or weed control at 31 g/ha: 31 g ai/ha; for pest or weed control at 62 g/ha: 62 g ai/ha; for pest or weed control at 125 g/ha: 125 g ai/ha
From the text: as §1, §2

[6] = tested on: oilseed rape (Brassica napus); conditions: scale 0 to 100, read-out: Plant response rating, Oilseed Rape; for plant injury at 16 g/ha: 16 g ai/ha; for plant injury at 31 g/ha: 31 g ai/ha; for plant injury at 62 g/ha: 62 g ai/ha; for plant injury at 125 g/ha: 125 g ai/ha
From the text: as §1, §2

[7] = tested on: wild radish (Raphanus raphanistrum); conditions: scale 0 to 100, read-out: Plant response rating, Radish, Wild; for pest or weed control at 16 g/ha: 16 g ai/ha; for pest or weed control at 31 g/ha: 31 g ai/ha; for pest or weed control at 62 g/ha: 62 g ai/ha; for pest or weed control at 125 g/ha: 125 g ai/ha
From the text: as §1, §2

[8] = tested on: Italian ryegrass (Lolium multiflorum); conditions: scale 0 to 100, read-out: Plant response rating, Ryegrass, Italian; for pest or weed control at 16 g/ha: 16 g ai/ha; for pest or weed control at 31 g/ha: 31 g ai/ha; for pest or weed control at 62 g/ha: 62 g ai/ha; for pest or weed control at 125 g/ha: 125 g ai/ha
From the text: as §1, §2

[9] = tested on: wild buckwheat (Polygonum convolvulus); conditions: Fallopia convolvulus, scale 0 to 100, read-out: Plant response rating, Buckwheat, Wild; for pest or weed control at 16 g/ha: 16 g ai/ha; for pest or weed control at 31 g/ha: 31 g ai/ha; for pest or weed control at 62 g/ha: 62 g ai/ha; for pest or weed control at 125 g/ha: 125 g ai/ha
From the text: as §1, §2

kochia (Kochia scoparia) = conditions: Bassia scoparia, scale 0 to 100, read-out: Plant response rating, Kochia; for pest or weed control at 16 g/ha: 16 g ai/ha; for pest or weed control at 31 g/ha: 31 g ai/ha; for pest or weed control at 62 g/ha: 62 g ai/ha; for pest or weed control at 125 g/ha: 125 g ai/ha
From the text: as §1, §2

[10] = tested on: winter barley (Hordeum vulgare); conditions: scale 0 to 100, read-out: Plant response rating, Barley, Winter; for plant injury at 16 g/ha: 16 g ai/ha; for plant injury at 31 g/ha: 31 g ai/ha; for plant injury at 62 g/ha: 62 g ai/ha; for plant injury at 125 g/ha: 125 g ai/ha
From the text: as §1, §2

SMILES: FC(F)c1cc(-c2ccccc2Oc2ncc(Cl)cn2)on1 [Compound 53, 5-chloro-2-[2-[3-(difluoromethyl)-5-isoxazolyl]phenoxy]pyrimidine]
- pest or weed control at 16 g/ha ([1]; post-emergence, Postemergence): 5%
- pest or weed control at 31 g/ha ([1]; post-emergence, 31 g ai/ha, Postemergence): 5%
- pest or weed control at 62 g/ha ([1]; post-emergence, Postemergence): 10%
- pest or weed control at 125 g/ha ([1]; post-emergence, Postemergence): 20%
- pest or weed control at 16 g/ha ([1]; pre-emergence, Preemergence): 0%
- pest or weed control at 62 g/ha ([1]; pre-emergence, Preemergence): 35%
- pest or weed control at 125 g/ha ([1]; pre-emergence, Preemergence): 50%
- pest or weed control at 16 g/ha ([2]; post-emergence, Postemergence): 0%
- pest or weed control at 31 g/ha ([2]; post-emergence, Postemergence): 0%
- pest or weed control at 62 g/ha ([2]; post-emergence, Postemergence): 5%
- pest or weed control at 125 g/ha ([2]; post-emergence, Postemergence): 5%
- pest or weed control at 16 g/ha ([2]; pre-emergence, Preemergence): 10%
- pest or weed control at 31 g/ha ([2]; pre-emergence, Preemergence): 10%
- pest or weed control at 62 g/ha ([2]; pre-emergence, Preemergence): 20%
- pest or weed control at 125 g/ha ([2]; pre-emergence, Preemergence): 25%
- pest or weed control at 16 g/ha ([3]; post-emergence, Postemergence): 0%
- pest or weed control at 31 g/ha ([3]; post-emergence, Postemergence): 0%
- pest or weed control at 62 g/ha ([3]; post-emergence, Postemergence): 5%
- pest or weed control at 125 g/ha ([3]; post-emergence, Postemergence): 5%
- pest or weed control at 16 g/ha ([3]; pre-emergence, Preemergence): 0%
- pest or weed control at 31 g/ha ([3]; pre-emergence, Preemergence): 15%
- pest or weed control at 62 g/ha ([3]; pre-emergence, Preemergence): 15%
- pest or weed control at 125 g/ha ([3]; pre-emergence, Preemergence): 15%
- pest or weed control at 16 g/ha ([4]; post-emergence, Postemergence): 75%
- pest or weed control at 31 g/ha ([4]; post-emergence, Postemergence): 75%
- pest or weed control at 62 g/ha ([4]; post-emergence, Postemergence): 75%
- pest or weed control at 125 g/ha ([4]; post-emergence, Postemergence): 75%
- pest or weed control at 16 g/ha ([4]; pre-emergence, Preemergence): 25%
- pest or weed control at 31 g/ha ([4]; pre-emergence, Preemergence): 30%
- pest or weed control at 62 g/ha ([4]; pre-emergence, Preemergence): 60%
- pest or weed control at 125 g/ha ([4]; pre-emergence, Preemergence): 100%
- pest or weed control at 16 g/ha ([5]; post-emergence, Postemergence): 30%
- pest or weed control at 31 g/ha ([5]; post-emergence, Postemergence): 50%
- pest or weed control at 62 g/ha ([5]; post-emergence, Postemergence): 60%
- pest or weed control at 125 g/ha ([5]; post-emergence, Postemergence): 65%
- pest or weed control at 16 g/ha ([5]; pre-emergence, Preemergence): 100%
- pest or weed control at 31 g/ha ([5]; pre-emergence, Preemergence): 100%
- pest or weed control at 62 g/ha ([5]; pre-emergence, Preemergence): 100%
- pest or weed control at 125 g/ha ([5]; pre-emergence, Preemergence): 100%
- plant injury at 16 g/ha ([6]; post-emergence, Postemergence): 70%
- plant injury at 31 g/ha ([6]; post-emergence, Postemergence): 75%
- plant injury at 62 g/ha ([6]; post-emergence, Postemergence): 80%
- plant injury at 125 g/ha ([6]; post-emergence, Postemergence): 80%
- plant injury at 16 g/ha ([6]; pre-emergence, Preemergence): 50%
- plant injury at 31 g/ha ([6]; pre-emergence, Preemergence): 75%
- plant injury at 62 g/ha ([6]; pre-emergence, Preemergence): 100%
- plant injury at 125 g/ha ([6]; pre-emergence, Preemergence): 100%
- pest or weed control at 16 g/ha ([7]; post-emergence, Postemergence): 60%
- pest or weed control at 31 g/ha ([7]; post-emergence, Postemergence): 60%
- pest or weed control at 62 g/ha ([7]; post-emergence, Postemergence): 90%
- pest or weed control at 125 g/ha ([7]; post-emergence, Postemergence): 90%
- pest or weed control at 16 g/ha ([7]; pre-emergence, Preemergence): 50%
- pest or weed control at 31 g/ha ([7]; pre-emergence, Preemergence): 70%
- pest or weed control at 62 g/ha ([7]; pre-emergence, Preemergence): 100%
- pest or weed control at 125 g/ha ([7]; pre-emergence, Preemergence): 90%
- pest or weed control at 16 g/ha ([8]; post-emergence, Postemergence): 0%
- pest or weed control at 31 g/ha ([8]; post-emergence, Postemergence): 0%
- pest or weed control at 62 g/ha ([8]; post-emergence, Postemergence): 5%
- pest or weed control at 125 g/ha ([8]; post-emergence, Postemergence): 5%
- pest or weed control at 16 g/ha ([8]; pre-emergence, Preemergence): 10%
- pest or weed control at 31 g/ha ([8]; pre-emergence, Preemergence): 10%
- pest or weed control at 62 g/ha ([8]; pre-emergence, Preemergence): 25%
- pest or weed control at 125 g/ha ([8]; pre-emergence, Preemergence): 25%
- pest or weed control at 16 g/ha ([9]; post-emergence, Postemergence): 70%
- pest or weed control at 31 g/ha ([9]; post-emergence, Postemergence): 65%
- pest or weed control at 62 g/ha ([9]; post-emergence, Postemergence): 90%
- pest or weed control at 125 g/ha ([9]; post-emergence, Postemergence): 95%
- pest or weed control at 16 g/ha ([9]; pre-emergence, Preemergence): 65%
- pest or weed control at 31 g/ha ([9]; pre-emergence, Preemergence): 100%
- pest or weed control at 62 g/ha ([9]; pre-emergence, Preemergence): 100%
- pest or weed control at 125 g/ha ([9]; pre-emergence, Preemergence): 100%
- pest or weed control at 16 g/ha (kochia (Kochia scoparia); post-emergence, Postemergence): 50%
- pest or weed control at 31 g/ha (kochia (Kochia scoparia); post-emergence, Postemergence): 55%
- pest or weed control at 62 g/ha (kochia (Kochia scoparia); post-emergence, Postemergence): 70%
- pest or weed control at 125 g/ha (kochia (Kochia scoparia); post-emergence, Postemergence): 80%
- pest or weed control at 16 g/ha (kochia (Kochia scoparia); pre-emergence, Preemergence): 10%
- pest or weed control at 31 g/ha (kochia (Kochia scoparia); pre-emergence, Preemergence): 15%
- pest or weed control at 62 g/ha (kochia (Kochia scoparia); pre-emergence, Preemergence): 55%
- pest or weed control at 125 g/ha (kochia (Kochia scoparia); pre-emergence, Preemergence): 100%
- plant injury at 16 g/ha ([10]; post-emergence, Postemergence): 5%
- plant injury at 31 g/ha ([10]; post-emergence, Postemergence): 5%
- plant injury at 62 g/ha ([10]; post-emergence, Postemergence): 5%
- plant injury at 125 g/ha ([10]; post-emergence, Postemergence): 10%
- plant injury at 16 g/ha ([10]; pre-emergence, Preemergence): 15%
- plant injury at 31 g/ha ([10]; pre-emergence, Preemergence): 10%
- plant injury at 62 g/ha ([10]; pre-emergence, Preemergence): 30%
- plant injury at 125 g/ha ([10]; pre-emergence, Preemergence): 25%
